Experimental data: publication PMC1950744, “Transcription Termination Defective Mutants of Rho: Role of Different Functions of Rho in Releasing RNA from the Elongation Complex” (Journal of Molecular Biology, 2007)

Tests used:
Rho [1] = molecular target: T1, Rho (Escherichia coli, UniProt P0AG30, I382N); test: UV cross-linking of [γ-32P]ATP, SDS-PAGE, hyperbolic fit; format: binding; details: read-out: Kd, app
T1 construct: full-length WT rho in pET21b (pRS96; NdeI/XhoI), C-terminal His-tag kept, expressed in E. coli BL21(DE3) (I382N in BL21SI), Ni-NTA and heparin-Sepharose; homo-hexamer; 419 residues natural length
T1 sequence (P0AG30 whole entry I382N): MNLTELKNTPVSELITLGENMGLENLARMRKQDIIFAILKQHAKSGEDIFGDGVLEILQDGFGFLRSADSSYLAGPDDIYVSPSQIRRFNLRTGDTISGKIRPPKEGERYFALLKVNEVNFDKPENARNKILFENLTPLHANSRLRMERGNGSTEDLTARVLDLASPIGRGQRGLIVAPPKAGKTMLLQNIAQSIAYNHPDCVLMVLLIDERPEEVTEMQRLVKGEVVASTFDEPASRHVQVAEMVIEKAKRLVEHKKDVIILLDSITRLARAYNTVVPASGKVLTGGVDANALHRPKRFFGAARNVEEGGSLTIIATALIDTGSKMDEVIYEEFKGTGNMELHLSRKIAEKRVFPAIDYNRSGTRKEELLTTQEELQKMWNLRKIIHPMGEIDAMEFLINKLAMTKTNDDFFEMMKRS
From the text: (§1) UV cross-linking of [γ-32P]ATP, SDS-PAGE, hyperbolic fit on Rho

Rho [2] = molecular target: T2, Rho (Escherichia coli, UniProt P0AG30, G51V); test: as above; format: binding; details: read-out: Kd, app
T2 construct: full-length WT rho in pET21b (pRS96; NdeI/XhoI), C-terminal His-tag kept, expressed in E. coli BL21(DE3) (I382N in BL21SI), Ni-NTA and heparin-Sepharose; homo-hexamer; 419 residues natural length
T2 sequence (P0AG30 whole entry G51V): as the sequence (P0AG30 whole entry I382N) above, with G51V, N382I counted along it
From the text: as §1

Rho [3] = molecular target: T3, Rho (Escherichia coli, UniProt P0AG30, P279S); test: as above; format: binding; details: read-out: Kd, app
T3 construct: full-length WT rho in pET21b (pRS96; NdeI/XhoI), C-terminal His-tag kept, expressed in E. coli BL21(DE3) (I382N in BL21SI), Ni-NTA and heparin-Sepharose; homo-hexamer; 419 residues natural length
T3 sequence (P0AG30 whole entry P279S): as the sequence (P0AG30 whole entry I382N) above, with P279S, N382I counted along it
From the text: as §1

Rho [4] = molecular target: T4, Rho (Escherichia coli, UniProt P0AG30, N340S); test: as above; format: binding; details: read-out: Kd, app
T4 construct: full-length WT rho in pET21b (pRS96; NdeI/XhoI), C-terminal His-tag kept, expressed in E. coli BL21(DE3) (I382N in BL21SI), Ni-NTA and heparin-Sepharose; homo-hexamer; 419 residues natural length
T4 sequence (P0AG30 whole entry N340S): as the sequence (P0AG30 whole entry I382N) above, with N340S, N382I counted along it
From the text: as §1

Rho [5] = molecular target: T5, Rho (Escherichia coli, UniProt P0AG30, G324D); test: as above; format: binding; details: read-out: Kd, app
T5 construct: full-length WT rho in pET21b (pRS96; NdeI/XhoI), C-terminal His-tag kept, expressed in E. coli BL21(DE3) (I382N in BL21SI), Ni-NTA and heparin-Sepharose; homo-hexamer; 419 residues natural length
T5 sequence (P0AG30 whole entry G324D): as the sequence (P0AG30 whole entry I382N) above, with G324D, N382I counted along it
From the text: as §1

Rho [6] = molecular target: T6, Rho (Escherichia coli, UniProt P0AG30, Y274D); test: as above; format: binding; details: read-out: Kd, app
T6 construct: full-length WT rho in pET21b (pRS96; NdeI/XhoI), C-terminal His-tag kept, expressed in E. coli BL21(DE3) (I382N in BL21SI), Ni-NTA and heparin-Sepharose; homo-hexamer; 419 residues natural length
T6 sequence (P0AG30 whole entry Y274D): as the sequence (P0AG30 whole entry I382N) above, with Y274D, N382I counted along it
From the text: as §1

[7] = system: T7, Nc1ncnc2c1ncn2[C@@H]1O[C@H](COP(=O)(O)OP(=O)(O)OP(=O)(O)O)[C@@H](O)[C@H]1O; test: ATPase assay, Pi release by TLC, Lineweaver-Burk; format: biochemical, Escherichia coli; details: poly(C) 10 μM as cofactor, 5 nM Rho, 25 mM Tris-HCl pH 8.0, 50 mM KCl, 5 mM MgCl2, 1 mM DTT, 0.1 mg/ml BSA, 30 °C
T7 construct: full-length WT rho in pET21b (pRS96; NdeI/XhoI), C-terminal His-tag kept, expressed in E. coli BL21(DE3) (I382N in BL21SI), Ni-NTA and heparin-Sepharose; homo-hexamer; 419 residues natural length
From the text: ATPase assay, Pi release by TLC, Lineweaver-Burk on Rho

Row | Molecule | Kd (Rho [1]) [µM] | Kd (Rho [2]) [µM] | Kd (Rho [3]) [µM] | Kd (Rho [4]) [µM] | Kd (Rho [5]) [µM] | Kd (Rho [6]) [µM] | Km [7] [µM]
1 | Nc1ncnc2c1ncn2[C@@H]1O[C@H](COP(=O)(O)OP(=O)(O)OP(=O)(O)O)[C@@H](O)[C@H]1O [ATP] | 0.6 ± 0.1 | 1.35 ± 0.26 | 4.28 ± 0.54 | 1.09 ± 0.12 | 2.45 ± 0.15 | 3.15 ± 0.26 | –
2 | Rho (Escherichia coli K-12; Y80C) | – | – | – | – | – | – | 43.2 ± 0.8
